# “Also recorded” adds a separate entry of the source.
# How the values were obtained:
# [1] = tested on: primary Human Epidermal Keratinocytes (HEKa); assay: PGE of HPRT with Cpf1 electroporation in non-pluripotent cells; format: cell-based
# Description: (§1) Stem cell lines cultured for this project included human 409-B2 hiPSC ([…], Riken BioResource Center) and SC102A1 hiPSC ([…], BioCat GmbH), chimpanzee SandraA ciPSC (female, Mora-Bermúdez et al. 201637), as well as H9 hESC ([…], WiCell Research Institute, Ethics permit AZ 3.04.02/0118). Stem cell lines were grown on Matrigel Matrix (Corning, 35248), and mTeSR1 (StemCell Technologies, 05851) with mTeSR1 supplement (StemCell Technologies, 05852) was used as culture media. Non-pluripotent cell types and their respective media used were: HEK293 (ECACC, 85120602) with DMEM/F-12 (Gibco, 31330-038) supplemented with 10% FBS (SIGMA, F2442) and 1% NEAA (SIGMA, M7145); K562 (ECACC, 89121407) with IMDM (ThermoFisher, 12440053) supplemented with 10% FBS; CD4^+ T (HemaCare, PB04C-1) with RPMI 1640 (ThermoFisher, 11875-093) supplemented with 10% FBS, and activated with Dynabeads Human T-Activator (CD3/CD28) (ThermoFisher, 11131D); CD34^+ progenitor (HemaCare, M34C-1) with StemSpan SFEM (Stemcell, 09600) supplemented with StemSpan CC110 (StemCell, 02697); and HEKa (Gibco, C0055C) with Medium 154 (ThermoFisher, M154500) and Human Keratinocyte Growth Supplement (ThermoFisher, S0015). Cells were grown at 37° C. in a humidified incubator gassed with 5% CO2. Media was replaced every day for stem cells and every second day for non-pluripotent cell lines. Cell cultures were maintained 4-6 days until ˜80% confluency, and subcultured at a 1:6 to 1:10 dilution. Adherent cells were dissociated using EDTA (VWR, 437012C). The media was supplemented with 10 μM Rho-associated protein kinase (ROCK) inhibitor Y-27632 (Calbiochem, 688000) after cell splitting for one day in order to increase cell survival.
# The recombinant A.s. Cpf1 and S.p. Cas9 protein and electroporation enhancer was ordered from IDT (Coralville, USA) and nucleofection was done using the manufacturer's protocol, except for the following alterations. […] Cells were counted using the Countess Automated Cell Counter (Invitrogen). […]
# HEK293 cells = assay: as above; format: cell-based, human; conditions: 20 μM NU7026, 0.01 μM TSA, 0.5 μM MLN4924, 5 μM NSC 15520
# Description: as §1
# (§2) The recombinant A.s. Cpf1 and S.p. Cas9 protein and electroporation enhancer was ordered from IDT (Coralville, USA) and nucleofection was done using the manufacturer's protocol, except for the following alterations. Nucleofection was done using the B-16 program (or U-14 for CD4^+ T cells) of the Nucleofector 2b Device (Lonza) in cuvettes for 100 μl Human Stem Cell nucleofection buffer (Lonza, VVPH-5022), or Human T Cell nucleofection buffer for CD4^+ T cells (Lonza, VPA-1002), and Human CD34 Cell nucleofection buffer for CD34^+ progenitor cells (Lonza, VPA-1003), containing 1 million cells of the respective lines, 78 pmol electroporation enhancer, 160 pmol of each gRNA (crRNA/tracR duplex for Cas9 and crRNA for Cpf1) (320 pmol for double nicking with both gRNAs for one gene), 200 pmol ssODN donor, 252 pmol CRISPR protein. For multiplexing, only gRNAs and single stranded DNA donors were electroporated, since a Cas9n expressing iCRISPR-Cas9n hiPSC line was used. Cells were counted using the Countess Automated Cell Counter (Invitrogen). […]
# K562 cells = assay: as above; format: cell-based, human; conditions: 20 μM NU7026, 0.01 μM TSA, 0.5 μM MLN4924, 5 μM NSC 15520
# Description: as §1, §2
# [2] = Solubility of stock in DMSO; format: physicochemical; conditions: 10 mM stock in DMSO
# Description: Commercially available small molecules used in this study were NU7026 (SIGMA, […]), TSA (SIGMA, […]), MLN4924 (Adooq BioScience, A11260), NSC 19630 (Calbiochem, 681647), NSC 15520 (ChemBridge, 6048069), AICAR (SIGMA, A9978), RS-1 (Calbiochem, 553510), Resveratrol (Selleckchem, S1396), SCR7 (XcessBio, M60082-2s), L755507 (TOCRIS, 2197), B02 (SIGMA, SML0364) and STL127685 (Vitas-M). STL127685 is a 4-fluorophenyl analog of the non-commercially available STL127705. Stocks of 15 mM (or 10 mM for NU7026) were made using dimethylsulfoxide (DMSO)(Thermo Scientific, D12345). […] Suitable working solutions for different concentrations were made so that addition of each small molecule accounts for a final concentration of 0.08% (or 0.2% for NU7026) DMSO in the media. Addition of all small molecules would lead to a final concentration of 0.7% DMSO.
SMILES,effect on PGE efficiency [1],effect on PGE efficiency (HEK293 cells),effect on PGE efficiency (K562 cells),solubility [2]
"NS(=O)(=O)OC[C@@H]1C[C@@H](n2ccc3c(N[C@H]4CCc5ccccc54)ncnc32)C[C@@H]1O [MLN4924, Pevonedistat]",disruptive effect,clear disruptive effect,clear disruptive effect,–
"CC(C)C1=CC23CCC4C(C)(C(=O)O)CCCC4(C)C2CC1C(C(=O)O)C3C(=O)O (centres unmarked) [NSC 15520, Fumaropimaric acid]",disruptive effect,–,–,–
O=c1cc(N2CCOCC2)oc2c1ccc1ccccc12 [NU7026],disruptive effect,strongly increases; also recorded: increases,strongly increases; also recorded: increases,limiting factor
